Laboratory results published in patent US20230339952A1, “MACROCYCLIC HETEROCYCLES AND USES THEREOF” (Kumquat Biosciences Inc., priority 2022, published 2023).
Read-outs that look alike come from different tables or passages of the source.

How the values were obtained:
SOS1 = SOS1 (Homo sapiens (Human), UniProt Q07889); experiment: Ras-SOS interaction assay (HTRF), K-Ras G13D utilized; type: binding; conditions: K-Ras G13D
[1] = test system: NCI-H1975 (ATCC CRL-5908) cell line comprising an EGFR T790M L858R double mutation; experiment: EGFR-SOS cellular inhibition assay (CellTiter-Glo cell proliferation); type: cell-based; conditions: Homo sapiens
Method: A CellTiter-Glo (CTG) luminescent based assay (Promega) is used to assess growth of the cells, as a measurement of the ability of the compounds herein to inhibit EGFR signaling in the cells. […] The day after plating, cells are treated with a dilution series (e.g., a 9 point 3-fold dilution series) of the compounds herein (e.g., approximately 125 μL final volume per well).

[2] = 120 h, NCI-H1975 cell proliferation, approximately 5 days, read-out: H1975 IC50
[3] = read-out: IC50 value against SOS1
[4] = NCI-H1975, EGFR T790M L858R double mutation, read-out: IC50 in inhibiting growth of NCI-H1975 cell line

Chain of SOS1 (Q07889 564-1049): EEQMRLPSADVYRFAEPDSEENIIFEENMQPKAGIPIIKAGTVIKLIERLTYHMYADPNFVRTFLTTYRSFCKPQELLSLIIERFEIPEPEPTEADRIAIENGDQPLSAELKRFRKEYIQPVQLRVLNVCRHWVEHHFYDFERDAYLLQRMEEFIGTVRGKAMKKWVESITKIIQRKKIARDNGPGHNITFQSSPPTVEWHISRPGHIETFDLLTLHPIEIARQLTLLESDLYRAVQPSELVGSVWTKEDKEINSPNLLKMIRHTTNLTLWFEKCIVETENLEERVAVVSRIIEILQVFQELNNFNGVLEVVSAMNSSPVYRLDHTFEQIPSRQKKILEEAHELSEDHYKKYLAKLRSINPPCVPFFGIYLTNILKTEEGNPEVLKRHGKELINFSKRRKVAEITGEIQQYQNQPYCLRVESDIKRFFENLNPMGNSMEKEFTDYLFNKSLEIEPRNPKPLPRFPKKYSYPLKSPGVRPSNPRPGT

Structure (SMILES)	IC50 (SOS1; read-out: SOS1 IC50) [nM]	IC50 [1, 2] [nM]	IC50 (SOS1; [3]) [nM]	IC50 [1, 4] [nM]
Cc1nc2c3cc(C4(C#N)CC4)c(=O)n(c3n1)CC/C=C\CN1CCC(CC1)C(F)(F)c1cccc(c1)[C@@H](C)N2 [Compound 172, 1-((4R,Z)-2,2-difluoro-6^2,4-dimethyl-6^7-oxo-6^7,6^8-dihydro-5-aza-6(4,8)-pyrido[2,3-d]pyrimidina-1(4,1)-piperidina-3(1,3)-benzenacycloundecaphan-9-en-6^6-yl)cyclopropane-1-carbonitrile]	100 to 5000	< 1000	–	–
COc1nnc2c3cc(C4CCS(=O)(=O)CC4)c(nc13)OCCCCCCCN1CCC(CC1)C(F)(F)c1cccc(c1F)[C@@H](C)N2 [Compound 177, (R)-4-(3^2,2,2-trifluoro-6^8-methoxy-4-methyl-7-oxa-5-aza-6(5,2)-pyrido[2,3-d]pyridazina-1(4,1)-piperidina-3(1,3)-benzenacyclotetradecaphane-6^3-yl)tetrahydro-2H-thiopyran 1,1-dioxide]	< 100	< 1000	–	–
C[C@H]1Nc2ncnc3c2cc(C2(C#N)CCS(=O)(=O)CC2)c(=O)n3CCCOCCCN2CCC(CC2)CC(F)(F)c2cccc1c2 [Compound 189, 4-((3R)-5,5-difluoro-3-methyl-1^7-oxo-1^7,1^8-dihydro-11-oxa-2-aza-1(4,8)-pyrido[2,3-d]pyrimidina-7(4,1)-piperidina-4(1,3)-benzenacyclotetradecaphane-1^6-yl)tetrahydro-2H-thiopyran-4-carbonitrile 1,1-dioxide]	< 100	< 1000	–	–
C[C@H]1Nc2ncnc3c2cc(C2CCS(=O)(=O)CC2)c(=O)n3CCCOCCCN2CCC(CC2)CC(F)(F)c2cccc1c2F [Compound 191, (3R)-1^6-(1,1-dioxidotetrahydro-2H-thiopyran-4-yl)-4^2,5,5-trifluoro-3-methyl-1^7,1^8-dihydro-11-oxa-2-aza-1(4,8)-pyrido[2,3-d]pyrimidina-7(4,1)-piperidina-4(1,3)-benzenacyclotetradecaphan-1^7-one]	< 100	< 1000	–	–
C[C@H]1Nc2ncnc3c2cc(N2CCS(=O)(=O)CC2)c(=O)n3CCCOCCCCN2CC(C2)CC(F)(F)c2cccc1c2 [Compound 209, (3R)-1^6-(1,1-dioxidothiomorpholino)-5,5-difluoro-3-methyl-1^7,1^8-dihydro-12-oxa-2-aza-1(4,8)-pyrido[2,3-d]pyrimidina-7(3,1)-azetidina-4(1,3)-benzenacyclopentade-caphan-1^7-one]	< 100	< 1000	< 50	< 500
C[C@H]1Nc2ncnc3c2cc(C2(C#N)CCS(=O)(=O)CC2)c(=O)n3CCCCCCCN2CC(C2)CC(F)(F)c2cccc1c2 [Compound 210, 4-((3R)-5,5-difluoro-3-methyl-1^7-oxo-1^7,1^8-dihydro-2-aza-1(4,8)-pyrido[2,3-d]pyrimidina-7(3,1)-azetidina-4(1,3)-benzenacyclotetradecaphane-1^6-yl)tetrahydro-2H-thiopyran-4-carbonitrile 1,1-dioxide]	< 100	< 1000	< 50	< 500
C[C@H]1Nc2ncnc3c2cc(N2CCS(=O)(=O)CC2)c(=O)n3CCCCCCCN2CC(C2)CC(F)(F)c2cccc1c2 [Compound 211, (3R)-1^6-(1,1-dioxidothiomorpholino)-5,5-difluoro-3-methyl-1^7,1^8-dihydro-2-aza-1(4,8)-pyrido[2,3-d]pyrimidina-7(3,1)-azetidina-4(1,3)-benzenacyclotetradecaphan-1^7-one]	< 100	< 1000	< 50	< 500
C[C@H]1Nc2ncnc3c2cc(C2CCS(=O)(=O)CC2)c(=O)n3CCCCCCCN2CC(C2)CC(F)(F)c2cccc1c2F [Compound 212, (3R)-1^6-(1,1-dioxidotetrahydro-2H-thiopyran-4-yl)-4^2,5,5-trifluoro-3-methyl-1^7,1^8-dihydro-2-aza-1(4,8)-pyrido[2,3-d]pyrimidina-7(3,1)-azetidina-4(1,3)-benzenacyclotetradecaphan-1^7-one]	< 100	< 1000	< 50	< 500

More lines, now with the values ahead:

IC50 (SOS1; read-out: SOS1 IC50) [nM]	IC50 [1, 2] [nM]	IC50 (SOS1; [3]) [nM]	IC50 [1, 4] [nM]	Structure (SMILES)
< 100	< 1000	–	–	C[C@H]1Nc2ncnc3c2cc(N2CCN(C4CCN(C)CC4)CC2)c(=O)n3CCCCCCCN2CCC(CC2)C(F)(F)c2cccc1c2F [Compound 178, (4R)-3^2,2,2-trifluoro-4-methyl-6^6-(4-(1-methylpiperidin-4-yl)piperazin-1-yl)-6^7,6^8-dihydro-5-aza-6(4,8)-pyrido[2,3-d]pyrimidina-1(4,1)-piperidina-3(1,3)-benzenacyclotridecaphan-6^7-one]
< 100	< 1000	–	–	C[C@H]1Nc2ncnc3c2cc(N2CCN(C4COC4)CC2)c(=O)n3CCCCCCCN2CCC(CC2)C(F)(F)c2cccc1c2F [Compound 179, (4R)-3^2,2,2-trifluoro-4-methyl-6^6-(4-(oxetan-3-yl)piperazin-1-yl)-6^7,6^8-dihydro-5-aza-6(4,8)-pyrido[2,3-d]pyrimidina-1(4,1)-piperidina-3(1,3)-benzenacyclo-tridecaphan-6^7-one]
< 100	< 1000	–	–	C[C@H]1Nc2ncnc3c2cc(N2CCN(S(C)(=O)=O)CC2)c(=O)n3CCCCCCCN2CCC(CC2)C(F)(F)c2cccc1c2F [Compound 180, (4R)-3^2,2,2-trifluoro-4-methyl-6^6-(4-(methylsulfonyl)piperazin-1-yl)-6^7,6^8-dihydro-5-aza-6(4,8)-pyrido[2,3-d]pyrimidina-1(4,1)-piperidina-3(1,3)-benzenacyclotride-caphan-6^7-one]
< 100	< 1000	–	–	C[C@H]1Nc2ncnc3c2cc(N2CCS(=O)(=O)CC2)c(=O)n3CCCCCN2CCC(CC2)CCC(F)(F)c2cccc1c2 [Compound 181, (3R)-1^6-(1,1-dioxidothiomorpholino)-5,5-difluoro-3-methyl-1^7,1^8-dihydro-2-aza-1(4,8)-pyrido[2,3-d]pyrimidina-8(4,1)-piperidina-4(1,3)-benzenacyclotridecaphan-1^7-one]
< 100	< 1000	–	–	C[C@H]1Nc2ncnc3c2cc(N2CCS(=O)(=O)CC2)c(=O)n3CCCOCCCCN2CCC(CC2)C(F)(F)c2cccc1c2 [Compound 186, (4R)-6^6-(1,1-dioxidothiomorpholino)-2,2-difluoro-4-methyl-6^7,6^8-dihydro-10-oxa-5-aza-6(4,8)-pyrido[2,3-d]pyrimidina-1(4,1)-piperidina-3(1,3)-benzenacyclotetradecaphan-6^7-one]
< 100	< 1000	–	–	CC(C)N1CCN(c2cc3c4ncnc3n(c2=O)CCCOCCCCN2CCC(CC2)C(F)(F)c2cccc(c2)[C@@H](C)N4)CC1 [Compound 190, (4R)-2,2-difluoro-6^6-(4-isopropylpiperazin-1-yl)-4-methyl-6^7,6^8-dihydro-10-oxa-5-aza-6(4,8)-pyrido[2,3-d]pyrimidina-1(4,1)-piperidina-3(1,3)-benzenacyclotetradecaphan-6^7-one]
< 100	< 1000	–	–	C[C@H]1Nc2ncnc3c2cc(C2CCS(=O)(=O)CC2)c(=O)n3CCCOCCCCN2CCC(CC2)C(F)(F)c2cccc1c2F [Compound 203, (4R)-6^6-(1,1-dioxidotetrahydro-2H-thiopyran-4-yl)-3^2,2,2-trifluoro-4-methyl-6^7,6^8-dihydro-10-oxa-5-aza-6(4,8)-pyrido[2,3-d]pyrimidina-1(4,1)-piperidina-3(1,3)-benzenacyclotetradecaphan-6^7-one]
